The source of these data is patent US20250205259A1, “CLASS OF 7-((FIVE-MEMBERED HETEROCYCLIC)METHYL)-8-CARBOXYLIC ACID-BENZO CYCLIC BORATE DERIVATIVES AND USES THEREOF” (priority 2022, published 2025).

Common to all, as to type: biochemical
One assay deals with TEM-1 (Escherichia coli, UniProt P62593). Kind of assay: Inhibitory activity on SBL, fluorescent substrate FC-5. As to conditions: for IC50: read-out: Inhibitory activity on SBL TEM-1 (IC50 class); for inhibitory activity on TEM-1 compared to avibactam: comparison in words.
TEM-1, sequence (P62593 24-286 limits assumed): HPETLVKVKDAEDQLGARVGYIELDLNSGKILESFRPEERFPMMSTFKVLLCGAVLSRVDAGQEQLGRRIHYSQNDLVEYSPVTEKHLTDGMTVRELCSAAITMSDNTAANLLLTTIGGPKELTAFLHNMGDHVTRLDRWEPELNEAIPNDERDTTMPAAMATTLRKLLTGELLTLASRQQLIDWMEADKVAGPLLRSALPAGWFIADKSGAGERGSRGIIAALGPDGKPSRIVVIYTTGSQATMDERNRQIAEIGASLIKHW
The target in another assay is VIM-2 (Escherichia coli, UniProt Q5U7L7). Nature of the assay: Inhibitory activity on MBL, fluorescent substrate FC-5. Conditions: read-out: Inhibitory activity on MBL VIM-2 (IC50 class).
The target in another assay is IMP-1 (Serratia marcescens, UniProt P52699). The description is as above. As to conditions: read-out: Inhibitory activity on MBL IMP-1 (IC50 class).
IMP-1, sequence (P52699 19-246 limits assumed): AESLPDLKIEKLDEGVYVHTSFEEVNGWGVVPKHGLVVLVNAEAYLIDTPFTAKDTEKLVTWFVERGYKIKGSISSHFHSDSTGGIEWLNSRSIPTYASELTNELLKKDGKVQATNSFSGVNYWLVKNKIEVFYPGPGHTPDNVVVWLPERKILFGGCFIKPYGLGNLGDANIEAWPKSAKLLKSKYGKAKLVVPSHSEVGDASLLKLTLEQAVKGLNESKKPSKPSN
For the next assay, the target named is OXA-48 (Klebsiella pneumoniae, UniProt Q6XEC0). Kind of assay: Inhibitory activity on SBL, fluorescent substrate FC-5. As to conditions: for IC50: read-out: Inhibitory activity on SBL OXA-48 (IC50 class); for inhibitory activity on OXA-48 compared to avibactam: comparison in words.
OXA-48, sequence (Q6XEC0 23-265 limits assumed): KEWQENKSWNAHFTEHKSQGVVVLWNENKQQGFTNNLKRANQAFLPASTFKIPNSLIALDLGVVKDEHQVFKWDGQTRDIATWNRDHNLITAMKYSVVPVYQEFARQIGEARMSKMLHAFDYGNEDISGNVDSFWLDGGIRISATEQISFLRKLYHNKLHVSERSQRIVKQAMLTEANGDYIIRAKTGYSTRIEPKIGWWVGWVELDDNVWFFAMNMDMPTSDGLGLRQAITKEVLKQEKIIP
Another assay deals with NDM-5 (Klebsiella pneumoniae, UniProt C7C422, M154L/V88L). Nature of the assay: Inhibitory activity on MBL, fluorescent substrate FC-5.
NDM-5, sequence (C7C422 29-270 V88L/M154L): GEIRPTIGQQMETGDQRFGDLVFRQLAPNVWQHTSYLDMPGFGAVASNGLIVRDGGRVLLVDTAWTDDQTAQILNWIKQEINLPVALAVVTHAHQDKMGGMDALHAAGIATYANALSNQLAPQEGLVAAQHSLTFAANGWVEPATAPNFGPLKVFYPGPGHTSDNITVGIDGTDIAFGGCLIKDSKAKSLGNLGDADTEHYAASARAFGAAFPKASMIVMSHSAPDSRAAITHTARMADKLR
Another assay deals with KPC-2 (Klebsiella pneumoniae, UniProt Q9F663). Nature of the assay: Inhibitory activity on SBL, fluorescent substrate FC-5. Conditions: for IC50: read-out: Inhibitory activity on SBL KPC-2 (IC50 class); for inhibitory activity on KPC-2 compared to avibactam: comparison in words.
KPC-2, sequence (Q9F663 25-293 limits assumed): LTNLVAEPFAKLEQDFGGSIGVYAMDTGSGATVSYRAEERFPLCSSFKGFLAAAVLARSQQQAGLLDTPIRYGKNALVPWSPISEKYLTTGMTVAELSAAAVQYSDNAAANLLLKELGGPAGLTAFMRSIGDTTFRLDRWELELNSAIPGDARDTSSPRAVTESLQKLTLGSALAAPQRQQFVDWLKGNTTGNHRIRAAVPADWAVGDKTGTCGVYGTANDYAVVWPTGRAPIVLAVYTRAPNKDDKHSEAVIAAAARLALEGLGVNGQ
The target of the next assay is CTX-M-14 (Escherichia coli, UniProt Q9L5C7). Described as above. Conditions: for IC50: read-out: Inhibitory activity on SBL CTX-M-14 (IC50 class); for inhibitory activity on CTX-M-14 compared to avibactam: comparison in words.
CTX-M-14, sequence (Q9L5C7 entry or part of it): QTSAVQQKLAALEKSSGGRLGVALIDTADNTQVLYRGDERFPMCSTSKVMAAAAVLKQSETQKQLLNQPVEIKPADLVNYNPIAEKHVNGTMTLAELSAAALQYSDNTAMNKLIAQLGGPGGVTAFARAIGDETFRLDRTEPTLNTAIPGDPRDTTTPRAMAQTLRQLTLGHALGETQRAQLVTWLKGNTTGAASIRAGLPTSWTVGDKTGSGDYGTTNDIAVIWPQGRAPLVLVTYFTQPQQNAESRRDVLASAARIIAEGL
The target in the next assay is T1, SHV-12 (UniProt P0AD64, L31Q/G234S/E235K, species not given).
T1 sequence (P0AD64 1-286 L31Q/G234S/E235K): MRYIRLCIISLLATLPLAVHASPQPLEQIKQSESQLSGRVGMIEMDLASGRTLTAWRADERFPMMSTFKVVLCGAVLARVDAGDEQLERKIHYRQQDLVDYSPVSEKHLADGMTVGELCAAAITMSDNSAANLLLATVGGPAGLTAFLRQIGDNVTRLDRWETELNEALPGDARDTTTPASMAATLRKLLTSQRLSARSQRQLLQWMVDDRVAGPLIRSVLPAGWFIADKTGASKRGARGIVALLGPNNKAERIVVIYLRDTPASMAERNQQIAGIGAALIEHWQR
The description is as above. Conditions: read-out: Inhibitory activity on SBL SHV-12 (IC50 class).

The target in another assay is VIM-1 (Pseudomonas aeruginosa, UniProt A0A0F7KYQ8). Nature of the assay: Inhibitory activity on MBL, fluorescent substrate FC-5.
Another assay deals with NDM-1 (Klebsiella pneumoniae, UniProt C7C422). Described as above.
NDM-1, sequence (C7C422 29-270 limits assumed): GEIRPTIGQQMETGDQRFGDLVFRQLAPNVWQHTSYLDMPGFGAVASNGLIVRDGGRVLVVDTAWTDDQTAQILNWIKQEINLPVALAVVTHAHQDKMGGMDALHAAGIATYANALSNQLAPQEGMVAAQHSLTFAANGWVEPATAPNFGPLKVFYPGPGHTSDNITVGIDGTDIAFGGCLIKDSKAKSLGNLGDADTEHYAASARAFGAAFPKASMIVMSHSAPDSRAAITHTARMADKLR
Setting [1] is: read-out: Inhibitory activity on MBL NDM-5 (IC50 class).
The mark [2] stands for this setting: VIM-1 and/or VIM-2, read-out: inhibitory activity at a nanomolar-level on VIM-1 and/or VIM-2.
[3] abbreviates: read-out: Inhibitory activity on MBL VIM-1 (IC50 class).
Where [4] appears, read: read-out: Inhibitory activity on MBL NDM-1 (IC50 class).
Setting [5] is: read-out: inhibitory activity at a nanomolar-level on NDM-5.
Where [6] appears, read: read-out: inhibitory activity at a nanomolar-level on NDM-1.

The structures appear in SMILES notation. Like-named read-outs stand apart in the source and are kept apart here.

As to `N#CCCCc1cn(Cc2ccc3c(c2C(=O)O)OB(O)CC3)nn1` [Compound 6], the IC50 at TEM-1 is 10 to 1000 nM; on VIM-2 it was 10 to 1000 nM; on IMP-1, 1000 to 100000 nM; on OXA-48, 10 to 1000 nM; at NDM-5 (setting [1]) it was 10 to 1000 nM; at KPC-2 it was < 10 nM. In addition, the IC50 on CTX-M-14 was 10 to 1000 nM; on SHV-12, 10 to 1000 nM; at VIM-1 (setting [2]) it was < 1000 nM; at VIM-1 (setting [3]), 1000 to 100000 nM; on NDM-1 (setting [4]), 1000 to 100000 nM.
`O=C(O)c1c(Cn2cncn2)ccc2c1OB(O)CC2` [Compound 13]: the IC50 on TEM-1 was 10 to 1000 nM; at VIM-2, 10 to 1000 nM; at IMP-1, 1000 to 100000 nM; at OXA-48, < 10 nM; on NDM-5 (setting [1]), 10 to 1000 nM; on NDM-5 (setting [5]), < 1000 nM. In addition, the IC50 at KPC-2 is < 10 nM; on CTX-M-14, < 10 nM; on SHV-12, 10 to 1000 nM; at VIM-1 (setting [2]) it was < 1000 nM; at VIM-1 (setting [3]) it was 1000 to 100000 nM; on NDM-1 (setting [4]), 10 to 1000 nM. Also, the IC50 on NDM-1 (setting [6]) is < 1000 nM.
As for `O=C(O)c1c(Cn2cccn2)ccc2c1OB(O)CC2` [Compound 14], the IC50 is 10 to 1000 nM at TEM-1; 10 to 1000 nM on VIM-2; 1000 to 100000 nM at IMP-1; < 10 nM at OXA-48; 10 to 1000 nM on NDM-5 (setting [1]); < 1000 nM at NDM-5 (setting [5]). Besides, the IC50 on KPC-2 is < 10 nM; at CTX-M-14, < 10 nM; at SHV-12, 10 to 1000 nM; on VIM-1 (setting [2]), < 1000 nM; at VIM-1 (setting [3]), 1000 to 100000 nM; at NDM-1 (setting [4]), 10 to 1000 nM. Moreover, the IC50 on NDM-1 (setting [6]) was < 1000 nM.
`O=C(O)c1c(Cn2cc(F)cn2)ccc2c1OB(O)CC2` [Compound 15]: the IC50 on TEM-1 is 10 to 1000 nM; at VIM-2 it was 10 to 1000 nM; at IMP-1, 1000 to 100000 nM; on OXA-48 it was 10 to 1000 nM; on NDM-5 (setting [1]), 10 to 1000 nM; at NDM-5 (setting [5]), < 1000 nM. Moreover, the IC50 was < 10 nM at KPC-2; 10 to 1000 nM at CTX-M-14; 10 to 1000 nM at SHV-12; < 1000 nM on VIM-1 (setting [2]); 1000 to 100000 nM at VIM-1 (setting [3]); 10 to 1000 nM on NDM-1 (setting [4]). In addition, the IC50 at NDM-1 (setting [6]) was < 1000 nM.
Consider `O=C(O)c1c(Cn2cc(C(F)(F)F)cn2)ccc2c1OB(O)CC2` [Compound 16], for which the IC50 on TEM-1 was 10 to 1000 nM; on VIM-2 it was 10 to 1000 nM; on IMP-1, 1000 to 100000 nM; on OXA-48, < 10 nM; at NDM-5 (setting [1]), 10 to 1000 nM; on NDM-5 (setting [5]) it was < 1000 nM. For the same molecule, the IC50 is < 10 nM at KPC-2; < 10 nM at CTX-M-14; 10 to 1000 nM at SHV-12; < 1000 nM at VIM-1 (setting [2]); 1000 to 100000 nM at VIM-1 (setting [3]); 10 to 1000 nM on NDM-1 (setting [4]). Also, at NDM-1 (setting [6]), the IC50 is < 1000 nM.
With `N#Cc1cnn(Cc2ccc3c(c2C(=O)O)OB(O)CC3)c1` [Compound 17], on TEM-1, the “inhibitory activity on TEM-1 compared to avibactam” value is recorded as “better or comparable”. In addition, the IC50 on TEM-1 is < 10 nM; at VIM-2 it was 10 to 1000 nM; on IMP-1, 1000 to 100000 nM; at OXA-48 it was < 10 nM; at NDM-5 (setting [1]) it was 10 to 1000 nM; at NDM-5 (setting [5]), < 1000 nM. Further, the IC50 on KPC-2 was < 10 nM; at CTX-M-14 it was 10 to 1000 nM; at SHV-12, 10 to 1000 nM; at VIM-1 (setting [2]) it was < 1000 nM; at VIM-1 (setting [3]), 1000 to 100000 nM; on NDM-1 (setting [4]), 10 to 1000 nM. For the same molecule, on NDM-1 (setting [6]), the IC50 was < 1000 nM. Also, the “inhibitory activity on OXA-48 compared to avibactam” value on OXA-48 is given as “better or comparable”. Further, the “inhibitory activity on KPC-2 compared to avibactam” value on KPC-2 is “better or comparable”. Also, the “inhibitory activity on CTX-M-14 compared to avibactam” value on CTX-M-14 is recorded as “better or comparable”.
In the case of `N#Cc1ccn(Cc2ccc3c(c2C(=O)O)OB(O)CC3)n1` [Compound 18], the “inhibitory activity on TEM-1 compared to avibactam” value on TEM-1 is reported as “better or comparable”. Moreover, the IC50 on TEM-1 is < 10 nM; on VIM-2, 10 to 1000 nM; on IMP-1 it was 1000 to 100000 nM; at OXA-48, < 10 nM; at NDM-5 (setting [1]) it was 10 to 1000 nM; on NDM-5 (setting [5]), < 1000 nM. Also, the IC50 on KPC-2 was < 10 nM; at CTX-M-14 it was 10 to 1000 nM; on SHV-12 it was 10 to 1000 nM; on VIM-1 (setting [2]), < 1000 nM; on VIM-1 (setting [3]) it was 1000 to 100000 nM; at NDM-1 (setting [4]) it was 10 to 1000 nM. Besides, on NDM-1 (setting [6]), the IC50 was < 1000 nM. Also, the “inhibitory activity on OXA-48 compared to avibactam” value at OXA-48 was “better or comparable”. The “inhibitory activity on KPC-2 compared to avibactam” value on KPC-2 was “better or comparable”. Also, the “inhibitory activity on CTX-M-14 compared to avibactam” value on CTX-M-14 is “better or comparable”.
